Test results published in patent publication US20240307430A1, “PHARMACEUTICAL COMPOSITION CONTAINING NICOTINAMIDE ADENINE DINUCLEOTIDE (NAD) AND CD38 INHIBITOR AND APPLICATION THEREOF” (HEFEI KNATURE BIO-PHARM CO., LTD., priority 2021, published 2024).

How the values were obtained:
[1] = system: Doxorubicin-induced cardiotoxicity (DIC) model; test: NAD+ content of cardiac tissues in the doxorubicin-induced cardiotoxicity (DIC) model; assay type: in vivo, C57BL/6 male mice; details: FIG. 2
Method: Circulation. 2016; 133:1668-1687”. 8-week-old C57BL/6 male mice were injected with 5 mg/kg of doxorubicin (DOX) or normal saline via the tail vein, and the administration was performed once a week for four consecutive weeks. Four weeks after the last administration, the mice were subjected to echocardiography to detect the cardiac function, and myocardial tissues of the mice were taken to detect the NAD^+ content. Mice were intraperitoneally injected with the same volume of saline as that of the experimental group once a day, and the duration cycle was the same as that of the DIC model. After administration, mice were subjected to echocardiography to detect the cardiac function, and myocardial tissues were taken from mice to detect NAD^+ content. CD38 inhibitor 78c was dissolved with DMSO. Mice were injected intraperitoneally with 10 mg/kg CD38 inhibitor 78c at 3 hours before doxorubicin injection in the DIC model. 78c was administered once a day until the endpoint of the DIC model. At the end of the model, echocardiography was performed on the mice to detect the cardiac function of the mice, and myocardial tissues were taken from the mice to detect NAD^+ content. NAD was dissolved in saline. Mice were injected intraperitoneally with 50 mg/kg NAD at 3 hours before doxorubicin injection in the DIC model. NAD was administered once a day, which lasted until the endpoint of the DIC model. […]

CD38 [2] = biological target: T1, CD38 (Homo sapiens, UniProt P28907); details: from the literature, Cell Metabolism 2018; cited from earlier work
T1 sequence (P28907 1-300): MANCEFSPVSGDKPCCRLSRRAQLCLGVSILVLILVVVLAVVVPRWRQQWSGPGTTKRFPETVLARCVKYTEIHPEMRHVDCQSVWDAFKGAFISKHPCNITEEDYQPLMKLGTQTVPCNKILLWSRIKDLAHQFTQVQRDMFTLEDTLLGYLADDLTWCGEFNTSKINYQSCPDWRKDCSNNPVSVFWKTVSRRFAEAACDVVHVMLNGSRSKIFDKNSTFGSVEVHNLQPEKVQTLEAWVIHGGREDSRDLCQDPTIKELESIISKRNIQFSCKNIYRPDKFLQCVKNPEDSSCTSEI

[3] = system: Doxorubicin-induced cardiotoxicity (DIC) model; test: Echocardiography of cardiac function (EF, FS) in the DIC model; assay type: in vivo, C57BL/6 male mice
Method: Circulation. 2016; 133:1668-1687”. 8-week-old C57BL/6 male mice were injected with 5 mg/kg of doxorubicin (DOX) or normal saline via the tail vein, and the administration was performed once a week for four consecutive weeks. Four weeks after the last administration, the mice were subjected to echocardiography to detect the cardiac function, and myocardial tissues of the mice were taken to detect the NAD^+ content. Mice were intraperitoneally injected with the same volume of saline as that of the experimental group once a day, and the duration cycle was the same as that of the DIC model. After administration, mice were subjected to echocardiography to detect the cardiac function, and myocardial tissues were taken from mice to detect NAD^+ content. CD38 inhibitor 78c was dissolved with DMSO. Mice were injected intraperitoneally with 10 mg/kg CD38 inhibitor 78c at 3 hours before doxorubicin injection in the DIC model. 78c was administered once a day until the endpoint of the DIC model. At the end of the model, echocardiography was performed on the mice to detect the cardiac function of the mice, and myocardial tissues were taken from the mice to detect NAD^+ content. NAD was dissolved in saline. Mice were injected intraperitoneally with 50 mg/kg NAD at 3 hours before doxorubicin injection in the DIC model. NAD was administered once a day, which lasted until the endpoint of the DIC model. At the end of the model, mice were subjected to echocardiography to detect cardiac function, and myocardial tissues were taken from mice to detect NAD^+ content. CD38 inhibitor 78c was dissolved in DMSO. Mice were injected intraperitoneally with 50 mg/kg NAD and 10 mg/kg CD38 inhibitor 78c at 3 hours before doxorubicin injection in the DIC model. The CD38 inhibitor 78c was administered once a day, which lasted until the endpoint of the DIC model. At the end of the model, mice were subjected to echocardiography to detect cardiac function, and myocardial tissues were taken from mice to detect NAD^+ content.

CD38 [4] = test: CD38 expression in mouse heart tissues after doxorubicin treatment; assay type: in vivo, mice; details: after doxorubicin treatment (5 mg/kg via tail vein, once a week for four weeks); mainly in CD31-positive endothelial cell region; FIG. 1
Method: 8-week-old C57BL/6 male mice were injected with 5 mg/kg of doxorubicin (DOX) or normal saline via the tail vein, and the administration was performed once a week for four consecutive weeks. Four weeks after the last administration, the mice were subjected to echocardiography to detect the cardiac function, and myocardial tissues of the mice were taken to detect the NAD^+ content.

In the case of `COCCOC1CCC(Nc2cc(=O)n(C)c3ccc(-c4cncs4)cc23)CC1` (stereo not shown) [compound 78c], the “cardiac NAD+ content” value ([1]; DOX-treated mice, i.p. once a day from 3 hours before doxorubicin, NAD 50 mg/kg, 78c 10 mg/kg) is given as “modestly increased”, the “inhibitory activity against CD38” value (CD38 [2]) is given as “has been demonstrated” and the “cardiac function (EF, FS)” value ([3]; DOX-treated mice, i.p. once a day from 3 hours before doxorubicin, NAD 50 mg/kg, 78c 10 mg/kg, FIGS. 3a and 3b) is given as “improved cardiac function”.
In the case of `COc1cccc2c1C(=O)c1c(O)c3c(c(O)c1C2=O)C[C@@](O)(C(=O)CO)C[C@@H]3O[C@H]1C[C@H](N)[C@H](O)[C@H](C)O1` [doxorubicin], the “NAD+ content of the cardiac tissues” value ([1]; doxorubicin 5 mg/kg via tail vein once a week for four weeks, compared with the control group) was “significant decrease”, the “CD38 expression in mouse heart tissues” value (CD38 [4]) was “significantly increased” and the “ejection fraction (EF) of the mouse heart” value ([3]; doxorubicin 5 mg/kg via tail vein once a week for four weeks, echocardiography, FIG. 3a) was “significantly reduced”. For the same molecule, the “fractional shortening (FS) of the mouse heart” value ([3]; doxorubicin 5 mg/kg via tail vein once a week for four weeks, echocardiography, FIG. 3b) was “significantly reduced”.
